The nature of data set [1]: relative permittivity at zero frequency (dimensionless). The settings on record: 303.15 K; 101 kPa; Liquid; capacitive measurement method.
The nature of data set [2]: relative permittivity at zero frequency (dimensionless); xn = mol fraction of the nth substance listed. As to conditions: 303.15 K, 101 kPa, Liquid, capacitive measurement method.

The structures appear in SMILES notation. ± gives the expanded uncertainty stated by the source.

With `CN(C)CCO` [2-(N,N-dimethylamino)ethanol], the “relative permittivity at zero frequency” value in data set [1] turned out to be 17.18 ± 0.1.
Regarding `CN(C)CCO` [2-(N,N-dimethylamino)ethanol] + OCC(O)CO, the “relative permittivity at zero frequency” value in data set [2] (x2 = 0) amounted to 17.18 ± 0.1; in data set [2] (x2 = 0.09), 18.66 ± 0.11; in data set [2] (x2 = 0.175), 20.4 ± 0.12; in data set [2] (x2 = 0.257) it was 22.09 ± 0.13; in data set [2] (x2 = 0.334), 23.83 ± 0.14; in data set [2] (x2 = 0.409), 25.5 ± 0.15. Moreover, the “relative permittivity at zero frequency” value in data set [2] (x2 = 0.48) was found to be 27.25 ± 0.16; in data set [2] (x2 = 0.547) it was 28.98 ± 0.17; in data set [2] (x2 = 0.612), 30.54 ± 0.18; in data set [2] (x2 = 0.675) it was 32.59 ± 0.2; in data set [2] (x2 = 0.734), 33.74 ± 0.2; in data set [2] (x2 = 0.792) it was 35.03 ± 0.21. The “relative permittivity at zero frequency” value in data set [2] (x2 = 0.847) turned out to be 37.13 ± 0.22; in data set [2] (x2 = 0.9), 38.63 ± 0.23; in data set [2] (x2 = 0.951), 39.96 ± 0.24.
`CN(C)C=O` [dimethylformamide]: in data set [1], the “relative permittivity at zero frequency” value amounted to 36.55 ± 0.22.
As to `CN(C)C=O` [dimethylformamide] + OCC(O)CO, the “relative permittivity at zero frequency” value in data set [2] (x2 = 0) is on record as 36.55 ± 0.22.
In the case of `NC=O` [formamide], the “relative permittivity at zero frequency” value in data set [1] is given as 106.14 ± 0.64.
Consider `NC=O` [formamide] + OCC(O)CO, for which the “relative permittivity at zero frequency” value amounted to 106.14 ± 0.64 in data set [2] (x2 = 0); 103.13 ± 0.62 in data set [2] (x2 = 0.037); 100.3 ± 0.6 in data set [2] (x2 = 0.077); 96.91 ± 0.58 in data set [2] (x2 = 0.12); 93.46 ± 0.56 in data set [2] (x2 = 0.165); 89.87 ± 0.54 in data set [2] (x2 = 0.214). Moreover, the “relative permittivity at zero frequency” value in data set [2] (x2 = 0.266) is listed as 85.74 ± 0.51; in data set [2] (x2 = 0.322) it was 81.37 ± 0.49; in data set [2] (x2 = 0.383), 76.3 ± 0.46; in data set [2] (x2 = 0.449), 71.94 ± 0.43; in data set [2] (x2 = 0.521) it was 66.48 ± 0.4; in data set [2] (x2 = 0.599), 61.52 ± 0.37. The “relative permittivity at zero frequency” value worked out at 56.42 ± 0.34 in data set [2] (x2 = 0.685), 50.76 ± 0.3 in data set [2] (x2 = 0.779) and 45.45 ± 0.27 in data set [2] (x2 = 0.884).

The values above are taken from the NIST ThermoML archive (doi:10.1016/j.fluid.2008.01.024).
